# In US20090203050A1 (The Regents of the University of California, priority 2005, published 2009):
# Entries after “also recorded” stand apart in the source; their conditions may differ.
# Tests used:
# Ramos-RR1 = assay: DNA fragmentation (PI) apoptosis assay, Ramos-RR1
# Procedure: (§1) Percentage of apoptotic cells was determined by evaluation of propidium iodide (PI) stained preparations of cells using an EpicXL flow-cytometer. Cellular debris was excluded from analysis by raising the forward scatter threshold, and DNA content of the intact nuclei was recorded on a logarithmic scale (Nicoletti, I. et al., J. Immunol. Methods, 139:271-9 (1991)). Percent apoptosis is represented as percentage of hypodiploid cells accumulated at sub-G0 phase of cell cycle.
# (§2) Cells were left either untreated or pre-treated with DHMEQ (36), bortezomib (Goy, A. et al., Clin. Lymphoma, 4:230-7 (2004)) and PD098059 (Alessi, D. et al., J. Biol. Chem., 270:27489-94 (1995)). Escalating concentrations of various drugs were then added and the percentage of apoptosis was measured.
# Daudi-RR1 = assay: DNA fragmentation (PI) apoptosis assay, Daudi-RR1
# Procedure: as §1, §2
# NF-κB and AP-1 DBA = assay: EMSA in RR clones; assay type: cell-based, human
# Procedure: FIG. 8. […] A. Total cell lysates (40 μg) were subjected to western blot analysis using phospho-specific Abs for various components of the NF-κB and ERK1/2 pathways. B. The kinase activity of the IKK complex using IκB-α peptide (aa 1-50 including S^32/36) and ERK1/2 using MAPK kinase substrates 4 (aa 172-192) using immune-complex kinase assay. C. […] 10 μg of nuclear lysates were subjected to EMSA (n=2) (19, 20).
# The DBAs were evaluated using biotin-labeled oligonucleotide AP-1 (5′-[…]-3′) (Lee, W et al., Cell, 49:741-52 (1987)) and NF-κB (5′-[…] […]-3′) probes (Harada, H. et al., Mol. Cell Biol., 14:1500-9 (1994)) using EMSA kit (Panomics, Inc., Redwood City, Calif.) according to manufacturer's instructions. 10 μg of nuclear extracts were subjected to […] 5% PAGE and developed (Jazirehi, A. et al., Cancer Research, 64:7117-26 (2004); Jazirehi, A. et al., Cancer Research, 65:264-76 (2005)).
# Next, alterations in the DBA of NF-κB and AP-1 in the clones were examined.
# [1] = system: 2F7, Ramos and Daudi wild type and RR clones; assay: TRAIL-mediated apoptosis in B-NHL cell lines and RR clones (DNA fragmentation); assay type: cell-based, human; conditions: inhibitor pretreatment 2 h, then TRAIL 18 h; rituximab-sensitive and -resistant cells
# Text: Patients with B-NHL respond initially to conventional chemotherapy and/or to immunotherapy with rituximab (alone or in combination with chemotherapy). However, patients develop resistance to these modalities and novel approaches are needed. TRAIL is a cytotoxic molecule that exerts selective anti-tumor cytotoxic activity with minimal toxicity to normal tissues. Further, TRAIL or agonist monoclonal antibody (mAb) to TRAIL receptors, DR4 and DR5, are currently being tested clinically. The present study investigated the sensitivity of B-NHL cell lines to TRAIL-mediated apoptosis using the AIDS-related NHL (ARL) B-cell line, 2F7, and the B-NHL cell lines, Ramos and Daudi. Also, to recapitulate various aspects of acquired rituximab-resistance, we have generated rituximab-resistant (RR) clones from the parental wild type (wt) cells. […] We then examined means to reverse […] resistance. We and others have reported that inhibition of NFκB activity can sensitize TRAIL-resistant tumor cells to TRAIL-induced apoptosis. […] Both the rituximab-sensitive and rituximab-resistant tumor cells were sensitized by these inhibitors, though higher concentrations were required for sensitization of the RR clones. […] Based on the findings, patients with resistant B-NHL can be treated with combination of TRAIL/anti-DR4 or DR5 mAb and NFκB inhibitors. Alternatively, these patients can be treated with agents that up-regulate TRAIL expression on host effectors (e.g., T cells, NK cells) in combination with NFκB inhibitors.
# 2F7RR1 clone = assay: Chemotherapeutic drug-induced apoptosis in 2F7RR1; assay type: cell-based
# Text: (§3) Accordingly, we examined whether inhibition of Bcl-2 in 2F7RR1 can reverse chemoresistance. Since Bcl-2 is under the transcriptional regulation of NFκB, we examined the effect of the NF-κB inhibitors Bortezomib and DHMEQ (Kikuchi, et al., Cancer Research, 63:107 (2003)).
# (§4) The mechanism by which B-NHL patients resist treatment is not known. […] We examined the effect of various chemical inhibitors of this signaling pathway on chemosensitization.
# [2] = system: p38MAPK/NF-κB/YY1/STAT3 signaling pathways, Bcl-2; assay: Molecular analysis of signaling in 2F7RR1; assay type: cell-based; conditions: 2F7-RR1
# Text: as §3, §4
# RR clones = assay: DNA fragmentation apoptosis assay, RR clones (pooled statements); assay type: cell-based, human; conditions: drugs e.g. Paclitaxel, Vincristine, VP-16, CDDP, Adriamycin
# Procedure: Thus, we examined if such sensitizing agents can reverse the resistance in the RR clones.
# as §1, §2
# [3] = system: PI3K/Akt signaling pathway in Ramos; assay: Western blot of phosphorylated and unphosphorylated Akt / NF-κB pathway proteins in Ramos; assay type: cell-based, human; conditions: rituximab 138 nM or (Fab′)2, 20 h
# Procedure: After stimulation, cells (2×10^6 cells) were collected and resuspended with lysis buffer (20 mM Tris-HCl (pH 8.0), 2 mM EDTA, 3% NP-40, 100 mM NaCt, 50 mM NaF, 1 uM PMSF, 1 uM VO4, 5 ug/ml aprotinin, 5 ug/ml leupeptin). After 30 min of incubation on ice, samples were centrifuged at 10,000×g, for 10 min at 4° C. to remove cellular debris. […] The membranes were blocked for 30 min with 5% non-fat dry milk diluted in 0.05% Tween-20 Tris-buffered saline at room temperature and incubated overnight with the primary antibodies. After incubation with the primary antibody against Akt (1:300), Bad, PDK1, (1:500), phospho-specific antibodies against phospho-Akt (Ser 473, Thr 308) (1:300), phospho-PDK1 and phospho-Bad (Serl 36) (both 1:300) for overnight, the membranes were washed and incubated with HRP-coupled secondary antibodies (Cell Signaling, MA, USA). Immunoreactive bands were detected using an enhanced chemiluminiscence system (Amersham Pharmacia Biotech, UK).
# Ramos cells = assay: PI flow cytometry apoptosis, chemosensitization of Ramos; assay type: cell-based, human; conditions: pretreatment then CDDP 15 μg/ml 24 h
# Procedure: The cells were then washed and fresh medium was added and seeded into 12 well plates (Costar, Cambridge, Mass.). Indicated concentrations of drugs (CDDP, ADR) were then added, and the cells were incubated for another 24 h for maximal cytotoxicity. At the end of the incubation period, the cells were harvested and subjected to propidium iodide (PI) (Molecular Probes, Leiden, Netherlands) staining according to the specifications of the PI staining kit (Roche Diagnostics Corporation, Indianapolis, Ind.) and evaluated by flow cytometric analysis. LY294002 was dissolved in DMSO (Sigma-Aldrich) and added up to 50 uM.
# DNA fragmentation was detected by flow cytometric analysis after propidium iodide staining (Alas, S. et al., Cancer Res., 61:5137-44 (2001)). Cells with fragmented DNA were considered as apoptotic. […] Fluorescence was measured on a FACScan flow cytometer (BD Immunocytometry Systems) within 1 h. […] Cellular debris were excluded from analysis by raising the forward scatter threshold, and the DNA content of the intact nuclei was recorded on a logarithmic scale. […]
# Ramos B-NHL cells were cultured in 1 ml of Opti-MEM medium without antibiotics and FBS. […] To determine Akt siRNA-induced sensitization to CDDP-induced apoptosis, following transfection the cells were treated with CDDP for 24 h, then fixed and permeabilized for PI staining, and analyzed by flow cytometry as described above.
Molecule,enhanced cytotoxicity of drugs by inhibitor (Ramos-RR1),"apoptosis, DHMEQ alone (Ramos-RR1; Ramos-RR1, DHMEQ 20 μg/ml)",enhanced cytotoxicity of drugs by inhibitor (Daudi-RR1),"apoptosis, DHMEQ alone (Daudi-RR1; Daudi-RR1, DHMEQ 20 μg/ml)",NF-κB and AP-1 DBA (EMSA) (NF-κB and AP-1 DBA),sensitization to TRAIL-induced apoptosis [1],"chemosensitization to drug-induced apoptosis (taxol, vincristine, ADR, CDDP, VP16) (2F7RR1 clone)","effect on NF-kB, YY1 and Bcl-2 expression [2]",sensitization of RR clones to various chemotherapeutic drugs (RR clones),effect on p-Akt (western) [3],sensitization to CDDP-induced apoptosis (Ramos cells)
"O=C(NC1=CC(=O)[C@H]2O[C@H]2[C@H]1O)c1ccccc1O [DHMEQ, dehydroxymethylepoxyquinomicin]",2.3-5.1 folds,10.1±2.1%,1.4-3.3 folds,4.9±1.6%,preferentially reduced,significant augmentation of apoptosis and synergy was achieved,reversal of resistance; also recorded: significantly sensitized,"inhibition of NF-kB, YY1 and downregulated Bcl-2 expression",sensitized,–,–
Rituximab (Fab′)2: Fc-devoid Rituximab (Fab′)2,–,–,–,–,–,–,–,–,–,also inhibited p-Akt like rituximab,sensitize the cells significantly
